Data from patent US20120251628A1, “COMPOSITIONS AND METHODS FOR TREATMENT OF CANCER” (priority 2011, published 2012).

Assays:
[1] = Histologic analysis of normal organ tissues for ischemic damage; type: in vivo, mice; conditions: 10 mg/kg intraperitoneal; 8, 24 and 48 hours after injection
Experimental: (§1) Seven-week-old, female, specific-pathogen-free (BALB/c) white mice (weight: approximately 20 g) purchased from ORIENTBIO Inc. (Seoul Korea) were subcutaneously injected with 2×10^6 cells of the CT26 colon carcinoma cell line per mouse. When the tumor size reached 3 mm in diameter, the control group was injected with a phosphate buffered saline (PBS) solution with 5% dextrose while the experimental group was intraperitoneally injected with 100 μL of KML001 at a concentration of 10 mg/kg with 5% dextrose. At 8, 24 and 48 hours after injection, liver, spleen and tumor tissue samples were taken and placed into a 37% solution of formaldehyde for 24 hours. The tissues were inserted into paraffin and sectioned at 4 μm on a microtome (made by SLEE MAINZ GmbH in Germany) and the sections were placed on slides.

tumors = experiment: Cell and animal experiments with KML001 injected after tumors were generated; type: in vivo
[2] = system: CT26 colon carcinoma cell line; experiment: Histologic analysis (hematoxylin and eosin) of tumor tissues; type: in vivo, mice; conditions: 10 mg/kg intraperitoneal; 8, 24 and 48 hours after injection; with increasing exposure time; from the central part of the tumors
Experimental: as §1

HUVECs [3] = experiment: Cytotoxicity test of HUVECs (CellTiter 96 Aqueous One Solution); type: cell-based, Human
Experimental: (§2) To determine the effect, if any, of sodium meta arsenite on vascularization, the effect on endothelial cells (which are essential for vascularization) was first analyzed. Human umbilical cord vein endothelial cells (HUVECs offered by ATCC) were cultivated in 96-well microculture plates containing F-12K (Sigma) medium supplemented with 10% FBS and endothelial cell growth supplement (ECGS, E2759, Sigma). For the cytotoxicity test of the cells after 24 hour cultivation, the cells were treated with KML001 at the concentration of 0.1 nM, 1 nM, 10 nM, 1 uM, 10 uM and 100 uM. At 24 hours and 48 hours after treatment, 20 μl/well of CellTiter 96® Aqueous One Solution (by Promega) Reagent was added on each well and reacted for one hour at 37° C. The reacted 96-well plates were measured at 490 nm using a spectrophotometer (UVStar, Greiner Bio-One). To analyze apoptosis of HUVECs, the cells were cultivated on F25 flasks using the same method as discussed above and then the cells were treated with sodium meta arsenite at a concentration of 10 uM, 20 uM and 50 uM. Cells were collected after 24 and 48 hours. The collected cells were stained for 30 minutes with Annexin-V for FACS analysis. After two washes, the cells were analyzed by using flow cytometry (FACSCALIBUR, BECTON DICLINSON).

α-tubulin mRNA = experiment: RT-PCR of tubulin mRNA from HUVECs; type: cell-based, Human; conditions: 5 uM, 10 uM and 20 uM, 24 hours and 48 hours after treatment
Experimental: (§3) To determine whether the level of tubulin gene expression is responsible for the change in amount of tubulin protein observed in Example 5, RT-PCR was performed. HUVECs (obtained from ATCC) were cultivated in F25 culture flasks containing F-12K (Sigma) medium supplemented with 10% FBS and endothelial cell growth supplement (ECGS, E2759, Sigma). After cultivation for 24 hours, the cells were treated with sodium meta arsenite at concentrations of 5 uM, 10 uM and 20 uM. […] Total RNA was extracted using Trizol (Invitrogen, USA) and alcohol precipitation. 1 ug of total RNA was used for reverse transcriptase and dT was used for cDNA synthesis. The primer for synthesized cDNA and α-tubulin (sense: 5′-ATTGTGCCTTCATGGTAGAC-3′ (SEQ ID NO. 1), antisense: 5′-TTCTGTCAGGTCAACATTCA-3′) (SEQ ID NO. 2), the primer for β-tubulin (sense: 5′-AACGACCTCGTCTCTGAGTA-3′ (SEQ ID NO. 3), antisense: 5′-AATTCTGAGGGAGAGGAAAG-3′) (SEQ ID NO. 4) and GAPDH primer set (sense: 5′-ACCACTTTGTCAAGCTCATT-3′ (SEQ ID NO. 5), antisense: 5′-AGTGAGGGTCTCTCTCTTCC-3′) (SEQ ID No. 6) were used for denaturation at 95° C. for four minutes. After the reactions at 23 cycles at 95° C. for 30 seconds, at 52° C. for 30 seconds and at 72° C. for 40 seconds, PCR was performed at 72° C. for four minutes. The PCR product was confirmed by 1.5% agarose gel electrophoresis.

β-tubulin mRNA = experiment: RT-PCR of tubulin mRNA from HUVECs; type: cell-based, Human; conditions: 5 uM, 10 uM and 20 uM, 24 hours and 48 hours after treatment
Experimental: as §3

HUVECs [4] = experiment: Apoptosis of HUVECs (Annexin-V FACS analysis); type: cell-based, Human
Experimental: as §2

[5] = injected after tumors were generated

SMILES: O=[As][O-].[Na+] [sodium meta arsenite]
- ischemic damage in liver, spleen or kidney tissues [1]: No ischemic damage was observed
- apoptosis (tumors; cell experiments and animal experiments): occurred dose-dependently
- necrotic phenomena in tumor tissues (tumors; [5]): occurred
- reduction in tumor volume (tumors; [5]): no effect
- scope of necrotic cell death in the tumor tissues [2]: observed to increase
- concentration at which cytotoxicity was observed (HUVECs [3]; 24 and 48 hours after treatment, tested 0.1 nM to 100 uM): 10 µM
- cytotoxicity over time (HUVECs [3]; 24 hours vs 48 hours): significantly increased over time
- α-tubulin mRNA levels (α-tubulin mRNA): no change
- β-tubulin mRNA level (β-tubulin mRNA): no change
- apoptosis, dependence on concentration (HUVECs [4]; 10 uM, 20 uM and 50 uM): concentration dependent, increasing with increased concentration
- apoptosis over time (HUVECs [4]; 24 and 48 hours exposure): increased over time
